Reference: paper PMC10706865, “Repurposing Study of 4-Acyl-1-phenylaminocarbonyl-2-substituted-piperazine Derivatives as Potential Anticancer Agents—In Vitro Evaluation against Breast Cancer Cells” (International Journal of Molecular Sciences, 2023)
Values joined by “and” are separate entries in the source; they are usually repeats but may differ in a detail not shown here. Equal values may be shown once. Read-outs that look alike come from different tables or passages of the source.

What was measured:
A549 lung cancer cells = assay: MTT cell viability assay, A549 lung cancer cells; format: cell-based, human; conditions: for IC50: 72 h exposure, MTT assay, read-out: IC50 (Mean ± SEM; μM) A549 (Cancer); for Selectivity Index: IC50 MRC-5 divided by IC50 A549, 72 h, MTT
Protocol: (§1) Benzofurane scaffold, piperazine ring, and urea function are relevant privileged structures present not only in anticancer drugs against breast cancer but also against other types of cancer, such as lung cancer, hepatocarcinoma, and gastric cancer. […] MRC-5 normal lung cells and A549 lung cancer cells were exposed to compounds 31, 32, 35, 37, and cisplatin (a common drug used to treat lung cancer) for 72 h, and cell viability was measured using the MTT assay (Figure 10 and Table 3). Compounds 35 and 37 also had high selectivity for A549 cancer cells.
(§2) Exponentially growing cells were seeded into 96-well plates, and drugs were added 24 h later. Each compound was dissolved with DMSO (Panreac Applichem) to prepare a stock solution (100 mM). The working solutions of specific concentrations were prepared via the dilution of the stock solutions in the culture medium and were immediately used to treat the cells. The remaining stock solutions were aliquoted and frozen at −40 °C. We used different aliquots in each independent experiment to avoid the freeze–thaw cycles. Cells were exposed to the drugs for 72 h. After these 72 h, cell viability was determined with the MTT assay or the resazurin assay. These assays are colorimetric techniques that are widely used to determine cell viability.
(§3) The MTT assay is based on the capability of viable cells to transform the MTT salt into a purple formazan dye. After an incubation period of the cells with the MTT and a solubilization step, the quantity of the colored product is measured with a plate reading spectrophotometer. […] The quantity of formazan produced is presumably proportional to the number of viable cells. After seeding for 24 h, cells were treated with the tested drugs for 72 h. Then, medium was removed, and 125 μL of MTT (1 mg/mL in medium) was added to each well for 3–4 h. Subsequently, 80 μL of 20% sodium dodecyl sulfate (Panreac Applichem) in 20 mM hydrochloric acid (Panreac Applichem) was added to dissolve the insoluble purple formazan product, plates were incubated for 10 h at 37 °C, and optical densities were measured at 540 nm on a multiwell plate spectrophotometer reader.
(§4) In both assays, cell viability was expressed as percentage in relation to controls. All data were averaged from at least two independent experiments and were expressed as mean ± standard error of the mean (SEM). Selectivity indices (SI) were calculated by dividing the IC50 values in the nonmalignant cells by those in the cancer cells.

MRC-5 normal lung cells = assay: MTT cell viability assay, MRC-5 normal lung cells; format: cell-based, human; conditions: read-out: IC50 (Mean ± SEM; μM) MRC-5 (Normal)
Protocol: as §1, §2, §3, §4

[1] = test system: MCF7 human breast cancer cells; assay: MTT cell viability assay, MCF7 breast cancer cells; format: cell-based; conditions: for IC50: 72 h exposure, MTT assay, read-out: IC50 (Mean ± SEM; μM) MCF7 (Cancer); for Selectivity Index: IC50 MCF 10A divided by IC50 MCF7, 72 h, MTT
Protocol: (§5) To evaluate the cytotoxicity of our compounds against cancer cells, they were evaluated in vitro against MCF7 human breast cancer cells. To examine the selectivity of our compounds, they were also studied against MCF 10A human normal cells. Both cell lines were exposed to different concentrations of our compounds for 72 h before measuring cell viability with the 3-(4,5-dimethylthiazol-2-yl)-2,5-diphenyltetrazolium bromide (MTT) assay (for conditions of the MTT assay, see the Experimental Part, Section 3). Docetaxel, an anticancer drug used in clinics, was tested under the same experimental conditions. Data were obtained from at least two independent experiments and were expressed as means ± standard error of means (SEM). The half-maximal inhibitory concentration (IC50) value of each compound was calculated, and the results are collected in Table 2. To evaluate the selective activity of our compounds, the selectivity index (SI) was also calculated. The curves of cell viability of MCF7 cancer cells and MCF 10A normal cells after the treatment with our compounds are shown (Figure 5, Figure 6, Figure 7, Figure 8 and Figure 9 and Figures S1–S4).
as §2, §3, §4

[2] = test system: MCF 10A human normal breast cells; assay: MTT cell viability assay, MCF 10A normal breast cells; format: cell-based; conditions: 72 h exposure, read-out: IC50 (Mean ± SEM; μM) MCF 10A (Normal)
Protocol: as §5, §2, §3, §4

HaCaT cells = assay: Resazurin cell viability assay, HaCaT nonmalignant cells; format: cell-based; conditions: Homo sapiens; for IC50: 72 h; for CC50: 144 h
Description: (§6) One key limitation of most anticancer drugs is that they not only target cancer cells but also affect nonmalignant cells with high division rates. This can induce numerous adverse effects, such as severe nausea and vomiting, hair loss, diarrhea, mouth sores, anemia, erythematous eruptions, etc. For example, skin cells, which are constantly renewing themselves, are often damaged by antimetabolites or alkylating agents. This can lead to painful erythematous eruptions. […] These cells are derived from normal adult tissue and have a division rate similar to that of cancer cells. A549 cells and HaCaT cells were exposed to various concentrations of 31, 32, 35, 37, or gemcitabine (a common antimetabolite used to treat cancer) for 72 h. Cell viability was determined with the resazurin assay. Subsequently, the cells were allowed to grow in a drug-free medium for another 72 h. This was performed to test their survival and proliferation ability after the removal of the compounds. Cell viability was again measured with the resazurin assay. […] It should be mentioned that cells exposed to high concentrations of compounds above 100 μM were unable to recover after treatment.
as §2
(§7) The resazurin assay measures the ability of viable cells to transform the blue compound resazurin into the pink compound resorufin. There is a direct correlation between the reduction in resazurin and the number of viable cells. After seeding for 24 h, cells were exposed to several concentrations of compounds. After a 72 h treatment period, the cells were washed once with a phosphate-buffered saline (PBS, biowest), and 150 μL of resazurin (20 μg/mL in the medium) was added to each well. The plates were then incubated for 4–5 h at 37 °C, 5% CO2, and optical densities were measured at 540 nm and 620 nm using a multiwell plate spectrophotometer reader (Imark Bio Rad Laboratories Inc., Hercules, CA, USA). Subsequently, cells were washed once with PBS and allowed to grow for an additional 72 h in drug-free medium to allow them to recuperate from possible damage induced by the tested compounds. After the treatment period, cell viability was measured following the same protocol described above.
as §4

A549 cells = assay: Resazurin cell viability assay, A549 cancer cells; format: cell-based, human; conditions: for IC50: Homo sapiens
Description: as §6, §2, §7, §4

[3] = Homo sapiens, MRC5, 72 h exposure
[4] = 72 h Treatment, resazurin assay, read-out: IC50 (Mean ± SEM; μM) HaCaT (Nonmalignant)
[5] = 72 h Treatment + 72 h Recovery Period, resazurin assay, read-out: IC50 (Mean ± SEM; μM) HaCaT (Nonmalignant)
[6] = A549, 72 h, 72 h Treatment, resazurin assay, read-out: IC50 (Mean ± SEM; μM) A549 (Cancer)
[7] = A549, 144 h, 72 h Treatment + 72 h Recovery Period, resazurin assay, read-out: IC50 (Mean ± SEM; μM) A549 (Cancer)
[8] = IC50 HaCaT divided by IC50 A549, 72 h Treatment, resazurin
[9] = IC50 HaCaT divided by IC50 A549, 72 h Treatment + 72 h Recovery Period, resazurin

Compound	IC50 (A549 lung cancer cells) [µM]	Selectivity Index (A549 lung cancer cells)	IC50 (MRC-5 normal lung cells; 72 h exposure) [µM]	IC50 [1] [µM]	IC50 ([1]; Homo sapiens, MCF7, 72 h) [µM]	Selectivity Index [1]	IC50 [2] [µM]	IC50 (A549 lung cancer cells; Homo sapiens, A549) [µM]	IC50 (MRC-5 normal lung cells; [3]) [µM]	IC50 (HaCaT cells; [4]) [µM]	CC50 (HaCaT cells; [5]) [µM]	IC50 (A549 cells; [6]) [µM]	IC50 (A549 cells; [7]) [µM]	Selectivity Index (A549 cells; [8])	Selectivity Index (A549 cells; [9])	IC50 (HaCaT cells; gemcitabine line in nM, 72 h Treatment + 72 h Recovery Period, resazurin, read-out: IC50 (Mean ± SEM) HaCaT (Nonmalignant)) [µM]	IC50 (HaCaT cells; gemcitabine line in nM, 72 h Treatment, resazurin, read-out: IC50 (Mean ± SEM) HaCaT (Nonmalignant)) [µM]	IC50 (A549 cells; A549, 72 h, gemcitabine line in nM, 72 h Treatment + 72 h Recovery Period, resazurin, read-out: IC50 (Mean ± SEM) A549 (Cancer)) [µM]	IC50 (A549 cells; A549, 72 h, gemcitabine line in nM, 72 h Treatment, resazurin, read-out: IC50 (Mean ± SEM) A549 (Cancer)) [µM]
N.N.[Cl][Pt][Cl] [Cisplatin, reference compound]	8.2 ± 2.2	6.3 ± 1.8	31.8 ± 5.6	–	–	–	–	–	–	–	–	–	–	–	–	–	–	–	–
CC(C)(C)OC(=O)N1CCN(C(=O)Nc2cc(C(F)(F)F)ccc2Cl)C(c2ccccc2)C1 (stereo not drawn) [Compound 31]	–	2.1 ± 0.3	–	18.6 ± 4.2	< 20	> 10 and 16.6 ± 1.9	298 ± 56.4	4.8 ± 0.8	14.2 ± 0.5	14.5 ± 3.2	30.9 ± 7.5	17 ± 1.6	17.8 ± 2	0.8 ± 0.2	–	–	–	–	–
CC(C)(C)OC(=O)N1CCN(C(=O)Nc2ccc(Cl)c(C(F)(F)F)c2)C(c2ccccc2)C1 (stereo not drawn) [Compound 32]	–	1.0 ± 0.1	–	–	–	12.6 ± 2.6	34.1 ± 2.2	5.2 ± 0.4	4.3 ± 0.2	6.7 ± 0.8	14.9 ± 1.3	6.2 ± 0.6	13.6 ± 0.1	1.1 ± 0.1	1.1 ± 0.1	–	–	–	–
O=C(c1cc2ccccc2o1)N1CCN(C(=O)Nc2ccc([N+](=O)[O-])cc2)C(c2ccccc2)C1 (stereo not drawn) [Compound 35]	–	6.5 ± 2.1	–	–	23 ± 3.8	11.1 ± 2.9	244 ± 24.9	25.6 ± 2.9	165 ± 4.1	41.6 ± 8.1	97.5 ± 16.2	28.4 ± 7.3	69.3 ± 20.2	1.6 ± 0.2	–	–	–	–	–
N#Cc1ccc(NC(=O)N2CCN(C(=O)c3cc4ccccc4o3)CC2c2ccccc2)cc1 (stereo not drawn) [Compound 37]	–	12.8 ± 1.6	–	–	57.1 ± 34.7	> 10	484 ± 233	18.7 ± 2.7	236 ± 5.4	24.8 ± 1.8	64.6 ± 6.8	22.5 ± 2.7	41.6 ± 8.9	1.1 ± 0.1	–	–	–	–	–
Nc1ccn([C@@H]2O[C@H](CO)[C@@H](O)C2(F)F)c(=O)n1 [Gemcitabine, reference compound]	–	–	–	–	–	–	–	–	–	–	–	–	–	3.3 ± 1.4	1.0 ± 0.1	0.0088 ± 0.0065	0.0131 ± 0.0062	0.0093 ± 0.007	0.0035 ± 0.0008
